From ChEMBL document CHEMBL3351259, “Semi-synthesis of biologically active nisin hybrids composed of the native lanthionine ABC-fragment and a cross-stapled synthetic DE-fragment” (2014)
Values after ≈ are worked out from the molar mass of the structure shown. Active and inactive are the calls of the source. The calls are words filed in the database; no cut-off is given here.

Experiments:
Bacillus subtilis = experiment: Antimicrobial activity against Bacillus subtilis assessed as inhibition of bacterial growth after 24 hrs by broth micro-dilution assay; type: functional
[1] = Binding affinity affinity to lipid II (unknown origin) by nisin competitive assay
[2] = Induction of membrane leakage in large unilamellar vesicles composed of 1,2-dioleoyl-sn-glycero-3-phosphocholine and 0.2% lipid II […] at 5 uM by carboxyfluorescein based fluorescence spectroscopy; type: functional

Row | SMILES | MIC (Bacillus subtilis) [µM] | Activity [1] | Activity [2]
1 | C=C1NC(=O)[C@H]([C@@H](C)CC)NC(=O)[C@@H](NC(=O)/C(=C/C)NC(=O)[C@@H](N)[C@@H](C)CC)CSC[C@@H](C(=O)N[C@@H]2C(=O)N3CCC[C@H]3C(=O)NCC(=O)N[C@H](C(=O)N[C@@H](CCCCN)C(=O)N[C@@H]3C(=O)NCC(=O)N[C@@H](C)C(=O)N[C@@H](CC(C)C)C(=O)N[C@@H](CCSC)C(=O)NCC(=O)N[C@H](C(=O)N[C@@H](CC(N)=O)C(=O)O)CS[C@H]3C)CS[C@H]2C)NC(=O)[C@H](CC(C)C)NC1=O | 6.2 (≈ 11.7 µg/mL) | Active | inactive
2 | C=C1NC(=O)[C@H]([C@@H](C)CC)NC(=O)[C@@H](NC(=O)/C(=C/C)NC(=O)[C@@H](N)[C@@H](C)CC)CSC[C@@H](C(=O)N[C@@H]2C(=O)N3CCC[C@H]3C(=O)NCC(=O)N[C@H](C(=O)N[C@@H](CCCCN)C(=O)N[C@@H]3C(=O)NCC(=O)N[C@@H](C)C(=O)N[C@@H](CC(C)C)C(=O)N[C@@H](CCSC)C(=O)NCC(=O)N[C@H](C(=O)N[C@@H](CC(N)=O)C(=O)NCc4cn([C@@H](CCCCN)C(=O)N[C@@H]5C/C=C/C[C@@H]6NC(=O)[C@@H](C/C=C/C[C@@H](C(=O)OC)NC(=O)[C@H](CC(N)=O)NC6=O)NC(=O)[C@H](C)NC5=O)nn4)CS[C@H]3C)CS[C@H]2C)NC(=O)[C@H](CC(C)C)NC1=O | – | Active | inactive
3 | C=C1NC(=O)[C@H]([C@@H](C)CC)NC(=O)[C@@H](NC(=O)/C(=C/C)NC(=O)[C@@H](N)[C@@H](C)CC)CSC[C@@H](C(=O)N[C@@H]2C(=O)N3CCC[C@H]3C(=O)NCC(=O)N[C@H](C(=O)N[C@@H](CCCCN)C(=O)N[C@@H]3C(=O)NCC(=O)N[C@@H](C)C(=O)N[C@@H](CC(C)C)C(=O)N[C@@H](CCSC)C(=O)NCC(=O)N[C@H](C(=O)N[C@@H](CC(N)=O)C(=O)N[C@@H](CC(C)C)c4cn([C@@H](CCCCN)C(=O)N[C@@H]5C/C=C/C[C@@H]6NC(=O)[C@@H](C/C=C/C[C@@H](C(=O)N[C@@H](CCCCC)C(=O)NC)NC(=O)[C@H](CC(N)=O)NC6=O)NC(=O)[C@H](C)NC5=O)nn4)CS[C@H]3C)CS[C@H]2C)NC(=O)[C@H](CC(C)C)NC1=O | 4.07 (≈ 11.4 µg/mL) | – | inactive
4 | C=C1NC(=O)[C@H]([C@@H](C)CC)NC(=O)[C@@H](NC(=O)/C(=C/C)NC(=O)[C@@H](N)[C@@H](C)CC)CSC[C@@H](C(=O)N[C@@H]2C(=O)N3CCC[C@H]3C(=O)NCC(=O)N[C@H](C(=O)N[C@@H](CCCCN)C(N)=O)CS[C@H]2C)NC(=O)[C@H](CC(C)C)NC1=O | 167 (≈ 192 µg/mL) | – | inactive
